Measured values: publication PMC7730438, “Generation of KS-58 as the first K-Ras(G12D)-inhibitory peptide presenting anti-cancer activity in vivo” (Scientific Reports, 2020)
Several values for one entry are separate records, joined by “and”; a condition that tells them apart may be missing. Equal entries are not always repeated. Starred links: 1 amine or outer side, 2 acyl side, 3 side chain; linkers in the order of their positions; H or OH if unused. Positions of bridges follow the written chain, without caps; N, C: chain ends. Non-standard residues stand in square brackets, D forms with d. Residues, ends and D or L forms follow the SMILES beside them. Groups on a side chain read outwards from the residue. *: point of attachment. Biotin = O=C1N[C@H]2[C@H](CS[C@H]2CCCCC(=O)*)N1; Phe(4-F) = N[C@@H](Cc1ccc(F)cc1)C(=O)O; X1 = CCCCCCC[C@H](N[*:1])C(=O)[*:2]; Nle = CCCC[C@H](N)C(=O)O; X2 = C(C[*:1])C[*:2]; Ahx = NCCCCCC(=O)O; βAla = NCCC(=O)O

Key:
A427 cells = experiment: Cell proliferation assay (CellTiter-Glo, 72 h); assay type: cell-based, human; conditions: A427 (G12D), peptide 30 µM, n = 4, ± SEM
Experimental: A427 (ATCC HTB-53), A549 (ATCC CCL-185), H1975 (ATCC CRL-5908), PANC-1 (ATCC CRL-1469), MIA PaCa-2 (ATCC CRL-1420), and Capan-1 (ATCC HTB-79) cells were purchased from ATCC, and each cell was cultured in medium supplemented with 10% fetal bovine serum (FBS), according to the protocol recommended by the manufacture.
The effect of peptides on cell proliferation of A427, A549, H1975, PANC-1, MIA PaCa-2, and Capan-1 cells was determined by 72 h exposure to peptides. Cells were seeded at 1000 cells/well in 96-well tissue culture plates in each growth media and allowed to adhere overnight on day 0. Peptides were solved in DMSO and then diluted with each growth media for a constant final DMSO concentration of 0.5%. Media in the wells were removed and replaced with diluted peptide solutions, and cells were incubated for 3 days. During the incubation, medium containing the peptides was replaced every day. Relative cell numbers were estimated using CellTiter-Glo assay kit (G7570, Promega, WI, USA) according to the manufacturer’s instructions. Luminescence was detected using SpectraMax i3x (MOLECULAR DEVICES, CA, USA). Cell proliferation rate (%) was calculated based on cell numbers at day 0 as 0% and at day 3 without peptide treatment as 100%.

[1] = molecular target: T1, K-Ras(G12D)^GTP–BRAF interaction (Homo sapiens, UniProt P01116, G12D); experiment: Intracellular PPI inhibition assay using NanoBiT in HEK293T cells; assay type: cell-based; conditions: peptide 30 µM, n = 4
T1 construct: host or cells: HEK293T
Experimental: (§1) Intracellular protein–protein interaction (PPI) inhibition assays were carried out using the NanoBiT system (Promega). Three kinds of plasmids with CMV promoters, which encodes human K-Ras(G12D) fusing SmBiT to the N-terminus, encodes human SOS1 fusing LgBiT to the C-terminus, and encodes human BRAF fusing LgBiT to the C-terminus, were prepared by Promega. Each combination of plasmids was transfected to HEK293T cells by FuGENE HD Reagent (E2312, […]). After 30 h incubation at 37 °C under 5% CO2, the cells were recovered, and seeded to 96-well tissue culture white plate with 10% FBS containing DMEM, and incubated overnight. Peptides were added to the plate and incubated for another 2 h. Nano-Glo (Promega, N2011) was directly added to the plate, and luminescence was immediately monitored. Intracellular K-Ras(G12D)^GDP–SOS1 and K-Ras(G12D)^GTP–BRAF interactions (%) were calculated based on no peptide treatment as 100% and only transfection of plasmid encoding LgBiT fusion protein as 0%.

[2] = molecular target: T2, K-Ras(G12D)^GDP–SOS1 interaction (Homo sapiens, UniProt P01116, G12D); experiment: as above; assay type: cell-based; conditions: peptide 30 µM, n = 4
T2 construct: host or cells: HEK293T
Experimental: as §1

[3] = tested on: PANC-1 xenografts (pancreas weight); experiment: Combination administration test of KS-58 and gemcitabine; assay type: in vivo, mice; conditions: gemcitabine alone, 40 mg/kg intraperitoneally once every 4 days for 4 weeks
Experimental: To establish orthotropic xenograft tumor models, 2.5 × 10^6 cells/50 µL of PANC-1 cells were injected into the pancreas of BALB/cAJcl-nu/nu male mice (8 weeks old; CLEA Japan, Inc.). KS-58 was dissolved in DMSO and then tenfold diluted by saline. The peptide solution was then injected intravenously to the mice bearing tumors once every 2 days for 4 weeks (40 mg/kg, n = 7). Organ weights of the pancreas, liver, and kidney were measured. In combination administration test, gemcitabine hydrochloride solution (Nipponkayaku) was tenfold diluted by saline and then injected intraperitoneally to the mice bearing tumors once every 4 days for 4 weeks (40 mg/kg, n = 10), and peptide solution prepared as a same manner described above was injected intravenously to the mice bearing tumors once every 2 days for 4 weeks (10, 20, or 40 mg/kg, n = 10). Organ weights of the pancreas were measured.

[4] = molecular target: T3, recombinant K-Ras(G12D) protein (Homo sapiens, UniProt P01116, G12D); experiment: Competition binding assay (ELISA) against Biotin-KRpep-2d; conditions: competitive inhibition of Biotin-KRpep-2d (100 nM) binding; n = 4, ± SEM
T3 construct: purchased Abcam ab268712
Experimental: (§2) Ras protein was directly coated to wells of Nunc MaxiSorp microplate in PBS containing 0.01 mM GDP and 10 mM MgCl2 overnight at 4 °C. The wells were blocked in PBS containing 0.1% bovine serum albumin (BSA) for 0.5 h at 25 °C.
For competition binding assays, Ras protein (250 ng/mL) was coated to wells of Nunc MaxiSorp 96-well clear plate (439454) as described above. […] The amounts of HRP in the wells were measured by absorbance at 450 nm.

[5] = molecular target: T3, recombinant K-Ras(G12D) protein; experiment: Cell-free ELISA binding of biotin-labeled peptides; conditions: Fig. 4A
Experimental: as §2
For binding assays of biotin-labeled peptides, Ras protein (25 μg/mL) was coated to wells of Nunc MaxiSorp 96-well clear plate (439,454) as described above. After washing the wells three times using PBS containing 0.1% Tween20 (PBST), biotin-labeled peptides in PBS containing 0.025% BSA, 0.01 mM GDP, and 10 mM MgCl2 were added to the wells. After 0.5 h incubation at 25 °C, the wells were washed with PBST three times. Bound biotin-labeled peptides were detected using horseradish peroxidase (HRP)-conjugated streptavidin (SA) (ab7403, Abcam) and 1-Step Ultra TMB-ELISA Substrate Solution (34028, Thermo Fisher Scientific). The amounts of HRP in the wells were measured by absorbance to 450 nm.

[6] = molecular target: SmBiT-fused K-Ras(G12D) (human) (UniProt P01116); experiment: split reporter (BiFC, NanoBiT); NanoBiT in transfected HEK293T cells; peptides (30 µM) added to the cells for 2 h; remaining K-Ras(G12D)-SOS1 or K-Ras(G12D)-BRAF luminescence in % of no peptide
[7] = molecular target: Recombinant human K-Ras(G12D) (human) (UniProt P01116)

## c(βAla-Pro-Nle-Cys-Anon-Ser-4fF-Asp-Pro-Trp-^DCys) [KS-58(monocyclic)]
A427 cells
  Cell proliferation (%): 87.1 ± 1.4%
[1]
  Intracellular K-Ras(G12D)^GTP–BRAF interaction (luminescence, %): weaker inhibition activity than KS-58
[2]
  Intracellular K-Ras(G12D)^GDP–SOS1 interaction (luminescence, %): weaker inhibition activity than KS-58

## Nc1ccn([C@@H]2O[C@H](CO)[C@@H](O)C2(F)F)c(=O)n1 [Gemcitabine, gemcitabine]
[3]
  cell growth of PANC-1 (pancreas weight; Sham = 0%, vehicle = 100%): 66%

## c[Arg-Arg-Arg-Arg-c(Dap-Pro-Nle-Trp-Anon-Dap-Cha-Asp-Pro-Trp-Asp)-Arg-Arg-Arg-Arg] [KS-36]
[4]
  K-Ras(G12D)-binding activity, fold-value compared to the parental KRpep-2d set as 1.0: about 30 Fold
A427 cells
  Cell proliferation (%): 33.1% and 33.1 ± 9.6%

## CCCCCCC[C@@H]1NC(=O)[C@@H]2CSCCCSC[C@@H](NC(=O)[C@H](Cc3c[nH]c4ccccc34)NC(=O)[C@H](CCCCNC(=O)CCCCCNC(=O)CCCC[C@@H]3SC[C@@H]4NC(=O)N[C@@H]43)NC(=O)[C@H](CC(=O)O)NC(=O)[C@H](Cc3ccc(F)cc3)NC(=O)[C@H](CO)NC1=O)C(=O)NCCC(=O)N1CCC[C@H]1C(=O)N[C@@H](CCCC)C(=O)N2 [Biotin-KS-58, c[βAla-Pro-Nle-c(Cys-Anon-Ser-4fF-Asp-Lys(εN-biotin)-Trp-^DCys)]] (cyclo([βAla]P[Nle]C[X1]S[Phe(4-F)]DK([Ahx-Biotin])W[dC]); linker 4-11 via X2)
[5]
  Binding activity to K-Ras(G12D) protein in ELISA (in words): peptide concentration-dependent binding

## KS-58 (peptide)
[6]
  percent of K-Ras(G12D)-BRAF NanoBiT luminescence left at 30 µM peptide: 53.8%
  percent of K-Ras(G12D)-SOS1 NanoBiT luminescence left at 30 µM peptide: 35.5%
[7]
  cell proliferation (%) of A427 cells (K-Ras G12D) at 30 µM peptide, 72 h, CellTiter-Glo: 21.1%
  cell proliferation (%) of PANC-1 cells (K-Ras G12D) at 30 µM peptide, 72 h, CellTiter-Glo: 50.1%
  pERK (%) in A427 cells (K-Ras G12D) at 30 µM peptide: 26%
  pERK (%) in PANC-1 cells (K-Ras G12D) at 30 µM peptide: 57.6%
